We go through six compounds from patent publication US6599918B2, “Substituted (aminoiminomethyl or aminomethyl) dihydrobenzofurans and benzopyrans” (Aventis Pharmaceuticals Inc., priority 1999, dated 2003).

Counter-ions that a name gives are not always drawn. Where no end group is shown, it is not given here.

The subject of data set [1] is neointimal proliferation after vascular injury. The note with it: rabbit carotid artery air-drying injury; cited from earlier work.
The subject of data set [2] is human cultured vascular smooth muscle cells. The note with it: cited from earlier work.
For data set [3], the system named is rat cultured vascular smooth muscle cells. The note with it: cited from earlier work.

For the compound `CC(C)(C)c1ccc(C(=O)NCCC2COc3ccc(C(=N)N)cc32)cc1` (stereo not shown) (as salt: salt) [Example 1b, 4-tert-Butyl-N-(2-[5-carbamimidoyl-2,3-dihydrobenzofuran-3-yl]ethyl)benzamide], the melting point (commonly the temperature of the solid-liquid transition) lay within 167 to 169 °C. On the same count and under the same terms, as for `CC(C)(CN)c1ccc(C(=O)NCCC2COc3ccc(C(=N)N)cc32)cc1` (stereo not shown) (as salt: salt) [Example 1c, 4-(2-Amino-1,1-dimethylethyl)-N-(2-[5-carbamimidoyl-2,3-dihydrobenzofuran-3-yl]ethyl)benzamide], the figure is 209 to 210 °C. For the compound `CC(=N)N1CC[C@H](Oc2ccc([C@H](Cc3ccc4ccc(C(=N)N)cc4c3)C(=O)O)cc2)C1` [DX-9065a], in data set [1], the neointimal proliferation result is given as “less neointimal proliferation”.

For `N=C(N)c1ccc2c(c1)C(CCNC(=O)c1ccc(-c3ccccn3)s1)CO2` (stereo not shown) [Example 1a, 5-(Pyridin-2-yl)-thiophene-2-carboxylic acid (2-[5-carbamimidoyl-2,3-dihydrobenzofuran-3-yl]ethyl)amide], the melting point was in the range of 54 to 56 °C.

`CCC(C)(C)c1ccc(S(=O)(=O)NCCC2COc3ccc(C(=N)N)cc32)cc1` (stereo not shown) [Example 1aar, 3-{2-[4-(1,1-Dimethylpropyl)benzenesulfonylamino]ethyl}-5-carbamimidoyl-2,3-dihydrobenzofuran] showed a melting point of 52 to 56 °C. For the compound “TAP: TAP, cited as example that the mitogenic effect of Factor Xa depends on Factor Xa enzymatic activity (YNRLCIKPRDWIDECDSNEGGERAYFRNGKGGCDSFWICPEDHTGADYYSSYRDCFNACI; ends and bridges not checked; cysteine pairing not given here; UniProt P17726 1-60, looked up)”, the “mitogenesis of cultured vascular smooth muscle cells” value in data set [2] and in data set [3] was “inhibited the mitogenesis” in each case.
